From PubChem BioAssay AID1259411 (Chemical Carcinogenesis Research Information System (CCRIS), 2018)
Activity calls are given as the source filed them. No rule for the calls is given here.

System: rodent carcinogenicity bioassays, tumor incidence
Test: CCRIS carcinogenicity studies
Method in brief: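 NCI-built, expert-reviewed records of carcinogenicity and related test outcomes (mutagenicity, tumor promotion/inhibition) compiled from published and report sources, historical span 1985-2011, not updated.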

CNN
carcinogen call (Species: DOG, Strain/Sex: BEAGLE/FEMALE, Route: INHALATION, Dose: 0, 0.2, 2 PPM 6 HR/D 5 D/WK FOR 1 YR (STUDY DURATION: 6 YR), Dose: 0, 0.2, 2 PPM 6 HR/D 5 D/WK FOR 1 YR (STUDY DURATION: 6 YR)): inactive; negative
carcinogen call (Species: DOG, Strain/Sex: BEAGLE/MALE, Route: INHALATION, Dose: 0, 0.2, 2 PPM 6 HR/D 5 D/WK FOR 1 YR (STUDY DURATION: 6 YR), Dose: 0, 0.2, 2 PPM 6 HR/D 5 D/WK FOR 1 YR (STUDY DURATION: 6 YR)): inactive; negative
carcinogen call (Species: HAMSTER, Route: ORAL, Tumor Site: Type of Lesion: LIVER): active; positive
carcinogen call (Species: HAMSTER, Strain/Sex: SYRIAN/MALE, Route: INHALATION, Dose: 0, 0.2, 2, 5 PPM 6 HR/D 5 D/WK FOR 1 YR (STUDY DURATION: 1 YR), Dose: 0, 0.2, 2, 5 PPM 6 HR/D 5 D/WK FOR 1 YR (STUDY DURATION: 1 YR), Tumor Site: Type of Lesion: NASAL CAVITY: ADENOMA): active; positive
carcinogen call (Species: MOUSE, Route: ORAL, Tumor Site: Type of Lesion: LUNG): active; positive
carcinogen call (Species: MOUSE, Strain/Sex: C57BL/FEMALE, Route: INHALATION, Dose: 0, 0.02, 0.2, 2, 5 PPM 6 HR/D 5 D/WK FOR 1 YR (STUDY DURATION: 2 YR), Dose: 0, 0.02, 0.2, 2, 5 PPM 6 HR/D 5 D/WK FOR 1 YR (STUDY DURATION: 2 YR), Tumor Site: Type of Lesion: LUNG: ADENOMA, LIVER: ADENOMA, CARCINOMA, HEMATOPOIETIC SYSTEM: HEMANGIOMA, Tumor Site: Type of Lesion: LUNG: ADENOMA, LIVER: ADENOMA, CARCINOMA, HEMATOPOIETIC SYSTEM: HEMANGIOMA): active; positive
carcinogen call (Species: MOUSE, Strain/Sex: SWISS/FEMALE, Route: ORAL, Dose: 0.001% SOLUTION IN DRINKING WATER FOR LIFE (DAILY INTAKE: 0.078 MG) (STUDY DURATION: LIFETIME), Tumor Site: Type of Lesion: LUNG: ADENOMA, ADENOCARCINOMA, HEMATOPOIETIC SYSTEM: MALIGNANT LYMPHOMA, MAMMARY GLAND: ADENOCARCINOMA, Tumor Site: Type of Lesion: LUNG: ADENOMA, ADENOCARCINOMA, HEMATOPOIETIC SYSTEM: MALIGNANT LYMPHOMA, MAMMARY GLAND: ADENOCARCINOMA): active; positive
carcinogen call (Species: MOUSE, Strain/Sex: SWISS/MALE, Route: ORAL, Dose: 0.001% SOLUTION IN DRINKING WATER FOR LIFE (DAILY INTAKE: 0.102 MG) (STUDY DURATION: LIFETIME), Tumor Site: Type of Lesion: LUNG: ADENOMA, ADENOCARCINOMA, HEMATOPOIETIC SYSTEM: MALIGNANT LYMPHOMA): active; positive
carcinogen call (Species: RAT, Strain/Sex: F344/FEMALE, Route: INHALATION, Dose: 0, 0.02, 0.2, 2, 5 PPM 6 HR/D 5 D/WK FOR 1 YR (STUDY DURATION: 2 YR), Dose: 0, 0.02, 0.2, 2, 5 PPM 6 HR/D 5 D/WK FOR 1 YR (STUDY DURATION: 2 YR)): inactive; negative
carcinogen call (Species: RAT, Strain/Sex: F344/MALE, Route: INHALATION, Dose: 0, 0.02, 0.2, 2, 5 PPM 6 HR/D 5 D/WK FOR 1 YR (STUDY DURATION: 2 YR), Dose: 0, 0.02, 0.2, 2, 5 PPM 6 HR/D 5 D/WK FOR 1 YR (STUDY DURATION: 2 YR)): inactive; negative

NC(=O)/C(=C\c1ccc([N+](=O)[O-])o1)c1ccco1
carcinogen call (Species: HAMSTER, Strain/Sex: SYRIAN/MALE, Route: ORAL, Dose: 0.25% IN DIET, Tumor Site: Type of Lesion: FORESTOMACH: PAPILLOMA, SQUAMOUS CELL CARCINOMA, BILE DUCT: ADENOMA): active; positive
carcinogen call (Species: MOUSE, Strain/Sex: CD-1/MALE,FEMALE, Route: ORAL, Dose: 0.4% IN DIET FOR 18 MO, Tumor Site: Type of Lesion: FORESTOMACH: PAPILLOMA, SQUAMOUS CELL CARCINOMA): active; positive
carcinogen call (Species: MOUSE, Strain/Sex: DDY/MALE, Route: ORAL, Dose: 0.25% IN DIET FOR 308 DAYS, Tumor Site: Type of Lesion: FORESTOMACH: SQUAMOUS CELL CARCINOMA): active; positive
carcinogen call (Species: MOUSE, Strain/Sex: ICR/MALE,FEMALE, Route: ORAL, Dose: 0.08, 0.4% IN DIET FOR 440 DAYS, Tumor Site: Type of Lesion: FORESTOMACH: PAPILLOMA, SQUAMOUS CELL CARCINOMA): active; positive
carcinogen call (Species: RAT, Strain/Sex: WISTAR/FEMALE, Route: ORAL, Dose: 0.08, 0.4% IN DIET FOR 18 MO, Tumor Site: Type of Lesion: MAMMARY GLAND: ADENOCARCINOMA, FORESTOMACH: PAPILLOMA): active; positive
carcinogen call (Species: RAT, Strain/Sex: WISTAR/MALE, Route: ORAL, Dose: 0.4% IN DIET FOR 18 MO, Tumor Site: Type of Lesion: FORESTOMACH: PAPILLOMA): active; positive

NNC(=O)c1ccccc1
carcinogen call (Species: MOUSE, Strain/Sex: SWISS/FEMALE, Route: ORAL, Dose: 0, 0.1% SOLUTION IN DRINKING WATER STARTING AT 6 WK OF AGE AND CONTINUED FOR LIFE FOR AN AVERAGE DAILY INTAKE OF 0, 0.57, Dose: 0, 0.1% SOLUTION IN DRINKING WATER STARTING AT 6 WK OF AGE AND CONTINUED FOR LIFE FOR AN AVERAGE DAILY INTAKE OF 0, 0.57, Tumor Site: Type of Lesion: LUNG: ADENOMA, LUNG: ADENOMA AND ADENOCARCINOMA): active; positive
carcinogen call (Species: MOUSE, Strain/Sex: SWISS/MALE, Route: ORAL, Dose: 0, 0.01% SOLUTION IN DRINKING WATER STARTING AT 6 WK OF AGE AND CONTINUED FOR LIFE FOR AN AVERAGE DAILY INTAKE OF 0, 0.8, Dose: 0, 0.01% SOLUTION IN DRINKING WATER STARTING AT 6 WK OF AGE AND CONTINUED FOR LIFE FOR AN AVERAGE DAILY INTAKE OF 0, 0.8, Tumor Site: Type of Lesion: LUNG: ADENOMA, LUNG: ADENOMA AND ADENOCARCINOMA): active; positive
